In patent US7943576B2, “Methods of using enterostatin as inhibitor of angiogenesis” (priority 2005, dated 2011):
Entries after “also recorded” stand apart in the source; their conditions may differ. Read-outs that look alike come from different tables or passages of the source.

What was measured:
[1] = system: adipose tissue; experiment: in vitro human adipose tissue angiogenesis assay (fat fragments in fibrin clot); assay type: cell-based
Description: Tissue Preparation: Discarded fat from human surgery was cut into fragments approximately 1 mm thick and 2 mm in diameter. These fat fragments were placed in 96-well plates loaded with human thrombin solution (0.05 IU in 40 μL double distilled water/well). The fat fragments were placed in the prepared 96-well plates and covered with 100 μl clotting media. The clotting media consisted of fibrinogen (3 mg/ml) (Sigma Chemical Co., St. Louis, Mo.) and ε-amino caproic acid (0.5%) (Sigma Chemical Co., St. Louis, Mo.) in human placental vein angiogenesis model (HPVAM) media. […] The mixture was allowed to clot by incubation in 6% CO2, 94% air at 37° C. in a humidified incubator. After the media had gelled overnight, the fat-containing clot was supplemented with 1 mL HPVAM media containing 20% fetal bovine serum (GibcoBRL, Gaithersburg, Md.). The total volume of each well was 2 mL.
Angiogenic Evaluation: All wells were evaluated for angiogenic sprouting by examination at 40× and 200× magnification by an unbiased observer using an inverted microscope. Angiogenesis was defined by two criteria. First, the number of wells (as a percentage of the total plated) that developed new vessel growth was termed initiation. This was defined by the presence of at least three angiogenic sprouts of approximately 0.5 mm in length growing from the periphery of the fat tissue. The degree of angiogenic response was assessed using a semi-quantitative visual rating scale as described in E. A. Woltering et al., “Development of a novel in vitro human tissue-based angiogenesis assay to evaluate the effect of antiangiogenic drugs,” Ann. Surg., vol. […] The tissue was visually divided into four quadrants. Each quadrant was given a numeric score from 0-4 based on the length and density of the new vessel growth, and on the percentage of the quadrant's circumference involved with the angiogenic response. Numeric results from the four quadrants were summed and expressed as an angiogenic index (AI, 1-16). This rating scale has been validated using multiple independent observers as described in C. Hornick et al., “Inhibition of angiogenic initiation and disruption of newly established human vascular networks by juice of Morinda citrifola (Noni),” Angiogenesis, vol.

[2] = cited from earlier work; for duration of action on feeding: single injection
[3] = molecular target: T1, cholecystokinin A receptors (Homo sapiens, UniProt P32238); conditions: cited from earlier work
T1 sequence (P32238 1-428): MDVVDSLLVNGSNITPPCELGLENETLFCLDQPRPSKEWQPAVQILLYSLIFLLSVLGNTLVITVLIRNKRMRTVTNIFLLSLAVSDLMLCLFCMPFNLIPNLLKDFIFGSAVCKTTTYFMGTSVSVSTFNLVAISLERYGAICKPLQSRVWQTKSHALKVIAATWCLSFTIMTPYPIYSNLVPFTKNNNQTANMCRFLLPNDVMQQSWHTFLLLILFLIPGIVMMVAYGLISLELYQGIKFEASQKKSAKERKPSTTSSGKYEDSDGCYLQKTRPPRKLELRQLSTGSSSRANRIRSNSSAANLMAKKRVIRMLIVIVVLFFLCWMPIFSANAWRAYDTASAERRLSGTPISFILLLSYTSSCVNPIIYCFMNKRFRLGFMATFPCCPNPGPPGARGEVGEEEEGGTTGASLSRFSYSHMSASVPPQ

[4] = system: umbilical veins; experiment: human umbilical vein angiogenesis model; assay type: cell-based
Source text: In addition, another angiogenesis model was tried, the human umbilical vein model as described by Woltering et al. (61). This model uses discarded umbilical veins to assay the effect of various compounds on angiogenesis.

[5] = molecular target: beta subunit of ATP synthase (Homo sapiens, UniProt P06576); conditions: cited from earlier work
[6] = low affinity binding, brain membrane preparation; cited from earlier work
[7] = system: HepG2 cells; experiment: microarray gene analysis, HepG2 cells; assay type: cell-based, human; conditions: HepG2 cells (counted together with GT1-7); 60 minutes; 0.01, 0.1 and 1.0 uM; regulated by at least 1.7×
Description: (§1) HepG2 cells (a human liver carcinoma cell line) and GT1-7 cells (a neuronal cell line) were cultured by standard procedures and incubated with varying concentrations of enterostatin for 60 minutes. At the completion of the incubation period, cells were lysed, recovered from the plates, and extracted for RNA using TRI REAGENT® (Molecular Research Center, Inc, Cincinnati, Ohio). The RNA was then purified using the RNeasy® Mini Kit (Qiagen, Valencia, Calif.). RNA quality was visually assessed using agarose gel electrophoresis and quantified by UV spectrophotometric analysis (A260 and A280 nm). All RNA had A260/A280 ratios greater than 1.75 and less than 2.10. RNA integrity was checked using an RNA 6000 nano lab chip kit (Agilent Technologies, Foster City, Calif.). […]
(§2) Slides were scanned using a GSI Lumonics ScanArray 5000 laser scanner (Perkin Elmer Life Sciences, Inc., Boston, Mass.) at a relatively low and a relatively high laser intensity and expression data was analyzed using the QuantArray V3.0 software package (Perkin Elmer Life Sciences, Inc.). […]

[8] = molecular target: kappa-opioid receptors (Homo sapiens, UniProt P41145); conditions: cited from earlier work
[9] = molecular target: T2, Neuropeptide Y1 receptors (Homo sapiens, UniProt P25929); conditions: cited from earlier work
T2 sequence (P25929 1-384): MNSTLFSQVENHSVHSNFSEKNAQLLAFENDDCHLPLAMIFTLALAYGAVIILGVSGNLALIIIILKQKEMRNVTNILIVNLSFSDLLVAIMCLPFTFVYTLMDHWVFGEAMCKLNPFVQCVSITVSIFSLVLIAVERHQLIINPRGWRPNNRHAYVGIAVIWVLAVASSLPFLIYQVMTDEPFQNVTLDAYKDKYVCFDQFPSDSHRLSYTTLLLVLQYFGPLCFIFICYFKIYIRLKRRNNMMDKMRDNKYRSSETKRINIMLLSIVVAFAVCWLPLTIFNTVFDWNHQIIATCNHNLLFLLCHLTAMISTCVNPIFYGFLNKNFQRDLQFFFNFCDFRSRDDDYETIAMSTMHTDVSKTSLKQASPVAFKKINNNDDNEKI

[10] = occurring mainly into lymphatic system; cited from earlier work
[11] = humans, intravenous injection; cited from earlier work
[12] = system: galanin receptors; conditions: cited from earlier work
[13] = system: islet cells; conditions: cited from earlier work
[14] = system: SK-N-MC neuroepithelioma cells; conditions: low affinity binding; cited from earlier work
[15] = system: GT1-7 cells; experiment: microarray gene analysis, GT1-7 cells; assay type: cell-based; conditions: GT1-7 cells (counted together with HepG2); 60 minutes; 0.01, 0.1 and 1.0 uM; regulated by at least 1.7×
Description: as §1, §2

[16] = rats adapted to three-choice macronutrient diet

beta subunit of ATP synthase, sequence (P06576 48-529): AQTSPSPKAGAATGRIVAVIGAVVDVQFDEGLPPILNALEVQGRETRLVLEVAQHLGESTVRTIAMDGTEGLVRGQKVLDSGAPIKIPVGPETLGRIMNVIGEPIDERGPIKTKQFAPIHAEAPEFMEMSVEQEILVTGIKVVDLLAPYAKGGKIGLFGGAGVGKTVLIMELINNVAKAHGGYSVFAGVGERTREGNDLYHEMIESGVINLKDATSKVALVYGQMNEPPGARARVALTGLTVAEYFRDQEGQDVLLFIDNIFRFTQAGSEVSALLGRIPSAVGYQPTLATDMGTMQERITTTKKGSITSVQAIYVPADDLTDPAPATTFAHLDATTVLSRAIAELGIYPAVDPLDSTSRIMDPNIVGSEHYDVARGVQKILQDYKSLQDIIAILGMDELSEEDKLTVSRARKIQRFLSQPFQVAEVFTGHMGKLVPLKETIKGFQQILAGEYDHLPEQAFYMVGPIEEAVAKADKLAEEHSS
kappa-opioid receptors, sequence (P41145 whole entry): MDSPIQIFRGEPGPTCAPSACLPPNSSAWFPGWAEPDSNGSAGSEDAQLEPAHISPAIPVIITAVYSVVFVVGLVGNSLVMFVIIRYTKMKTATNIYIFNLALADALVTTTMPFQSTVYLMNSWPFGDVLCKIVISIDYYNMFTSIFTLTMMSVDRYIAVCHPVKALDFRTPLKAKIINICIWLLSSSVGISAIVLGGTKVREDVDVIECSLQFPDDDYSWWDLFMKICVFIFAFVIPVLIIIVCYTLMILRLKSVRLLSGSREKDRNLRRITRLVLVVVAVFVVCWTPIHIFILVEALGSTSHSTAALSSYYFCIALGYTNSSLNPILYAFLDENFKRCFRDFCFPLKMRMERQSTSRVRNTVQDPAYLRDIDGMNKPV

APGP-ornithine [reference compound]
inhibitory effect on the angiogenic index (FIG. 4 legend) [1]: lack of an inhibitory effect | inhibition of angiogenesis (FIG. 4) ([1]; concentrations from 10^−6 to 10^−9 M): none of these concentrations of the metabolite inhibited angiogenesis | food intake in rats ([2]; rat, in vivo): shown to affect food intake in rats

enterostatin (VPDPR; printed: Val-Pro-Asp-Pro-Arg) [aminoterminal pentapeptide of procolipase released when procolipase is converted into colipase]
binding to cholecystokinin A receptors [3]: not to bind | concentration least inhibitory of angiogenesis as measured by the angiogenic index (FIG. 3) [1]: 10^−10 M | new blood vessels (photomicrograph, FIG. 1B vs control FIG. 1A) ([1]; 10^−9 M enterostatin): fewer new blood vessels than the control tissue | angiogenic response ([1]; concentrations from about 10^−6 to about 10^−9 M): effectively blocked the angiogenic response | concentration giving the greatest inhibition of angiogenic index (FIG. 2) ([1]; day 15, U-shaped dose response curve): 10^−9 M | effect on the angiogenic index (FIG. 2) ([1]; range of 10^−8 to 10^−6 M): dose dependent inhibition | inhibition of angiogenesis [4]: effective in inhibiting angiogenesis | binding to purified beta subunit of ATP synthase [5]: bind to this purified protein; also recorded: binds to the beta subunit of ATP synthase | Kd [6]: 230 nM | number of genes related to the angiogenesis pathway upregulated or downregulated [7]: 22 genes | binding to kappa-opioid receptors [8]: not to bind | binding to Neuropeptide Y1 receptors [9]: not to bind | daily intake of dietary fat ([2]; chronic icv administration from mini-osmotic pumps, single-choice HF or two-choice HF/LF diet): attenuated the daily intake of dietary fat | carbohydrate or protein intake [2, 16]: no effect on either carbohydrate or protein intake | intake of fat macronutrient [2, 16]: reduced intake of the fat macronutrient | duration of action on feeding ([2]; rats adapted to a six-hour feeding schedule): lasting up to six hours | duration of action on feeding ([2]; rats adapted to ad-libitum feeding): up to 24 hours | intake of HF vs LF diet ([2]; two-choice high-fat and low-fat diet paradigm): reduced only intake of the HF diet | absorption across the intestine [10]: limited and slow | food intake [11]: not found to reduce food intake | subjective feeling of hunger [11]: reduce the subjective feeling of hunger | binding to galanin receptors [12]: not to bind | insulin secretion from islets ([13]; 10^−9 to 10^−5 M, 16.7 mM glucose, dose-dependent): inhibited insulin secretion from islets | insulin secretion from isolated pancreatic islets ([13]; doses of 10^−10 to 10^−6M): inhibit insulin secretion | Kd [14]: 40 nM | number of genes related to the angiogenesis pathway upregulated or downregulated [15]: 22 genes

β-casomorphin1-7 [reference compound]
inhibitory effect on the angiogenic index (FIG. 4 legend) [1]: lack of an inhibitory effect | effect on angiogenesis (FIG. 4) ([1]; concentrations of 10^−6 and 10^−7 M): no effect on angiogenesis | binding to purified beta subunit of ATP synthase [5]: bind to this purified protein
